From ChEMBL document CHEMBL1201862, “PubChem BioAssay data set” (2004)
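48-hour exposure; five concentrations; linearly interpolated endpoints. Here, GI50 denotes the concentration required for 50% inhibition of growth.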 Activity calls are given as the source filed them. No stated cut-off is given here; in the data, active = GI50 up to about 1.1 µM and inactive = higher.

Columns and labels:
Test in all cases: NCI anticancer screen, dose series, 48 h
A498 = system: A498
A549 = system: A549
EKVX = system: EKVX
HCT-15 = system: HCT-15
IGROV-1 = system: IGROV-1
K562 = system: K562
MDA-MB-231 = system: MDA-MB-231
MOLT-4 = system: MOLT-4
NCI-H460 = system: NCI-H460
OVCAR-4 = system: OVCAR-4
PC-3 = system: PC-3
RXF 393 = system: RXF 393
SF-295 = system: SF-295
SF-539 = system: SF-539
SK-MEL-28 = system: SK-MEL-28
SK-MEL-2 = system: SK-MEL-2
T47D = system: T47D
TK-10 = system: TK-10
U-251 = system: U-251
NCI-H23 = system: NCI-H23

SMILES	GI50 (A498)	GI50 (A549)	GI50 (EKVX)	GI50 (HCT-15) [µM]	GI50 (IGROV-1)	GI50 (K562)	GI50 (MDA-MB-231)	GI50 (MOLT-4)	GI50 (NCI-H460)	GI50 (OVCAR-4)	GI50 (PC-3)	GI50 (RXF 393)	GI50 (SF-295)	GI50 (SF-539)	GI50 (SK-MEL-28)	GI50 (SK-MEL-2)	GI50 (T47D)	GI50 (TK-10)	GI50 (U-251)	GI50 (NCI-H23)
COc1cc(OCc2ccc3nc(-c4ccccc4)c(N)nc3c2)cc(OC)c1OC	27.1 µM (inactive)	20.6 µM (inactive)	19.7 µM (inactive)	17.3	22.2 µM (inactive)	15.5 µM (inactive)	25.5 µM (inactive)	8.13 µM (inactive)	18.7 µM (inactive)	13.8 µM (inactive)	17.8 µM (inactive)	23.1 µM (inactive)	26 µM (inactive)	20.7 µM (inactive)	19.3 µM (inactive)	19.9 µM (inactive)	14.4 µM (inactive)	24.1 µM (inactive)	32.5 µM (inactive)	
Cc1ccc(/C=C2\CNC/C(=C\c3ccc(C)cc3)C2=O)cc1	1.89 µM (inactive)	2.83 µM (inactive)	3.92 µM (inactive)	1.49	1.9 µM (inactive)	0.323 µM (active)	2.91 µM (inactive)	2.22 µM (inactive)	1.48 µM (inactive)	2.34 µM (inactive)	2.62 µM (inactive)		3.54 µM (inactive)	2.2 µM (inactive)	2.04 µM (inactive)	9.02 µM (inactive)	2.65 µM (inactive)	5.48 µM (inactive)	0.341 µM (active)	1.83 µM (inactive)
CC1(C)[C@@H](Cn2cnc3c(Cl)nc(N)nc32)CC[C@@]1(C)CO	> 100 µM (inactive)	> 100 µM (inactive)	58.9 µM (inactive)	35.9		> 100 µM (inactive)	21.3 µM (inactive)			> 100 µM (inactive)	96.6 µM (inactive)	65.8 µM (inactive)	> 100 µM (inactive)	> 100 µM (inactive)	43.5 µM (inactive)	18.5 µM (inactive)	> 100 µM (inactive)	> 100 µM (inactive)	> 100 µM (inactive)	
Cc1cc(C)c2c(n1)S(=O)(=O)N(CCCN1CCN(c3cccc(Cl)c3)CC1)C(C(=O)c1ccccc1)=C2O	28.8 µM (inactive)	30.4 µM (inactive)	26 µM (inactive)	24.8	40.3 µM (inactive)	35.6 µM (inactive)	44.1 µM (inactive)	7.82 µM (inactive)	18.5 µM (inactive)	24.7 µM (inactive)	30.8 µM (inactive)		31.8 µM (inactive)	40.6 µM (inactive)	44.4 µM (inactive)	32.4 µM (inactive)	38.8 µM (inactive)	27 µM (inactive)	37.6 µM (inactive)	28.4 µM (inactive)
c1ccc2sc(SCSc3nc4ccccc4s3)nc2c1	> 100 µM (inactive)	81.3 µM (inactive)	50.1 µM (inactive)	20.6	> 100 µM (inactive)	31.1 µM (inactive)	> 100 µM (inactive)	8.81 µM (inactive)	22.4 µM (inactive)	> 100 µM (inactive)	42.1 µM (inactive)	> 100 µM (inactive)	43.3 µM (inactive)		> 100 µM (inactive)	> 100 µM (inactive)	> 100 µM (inactive)	66.4 µM (inactive)	39.3 µM (inactive)	70.3 µM (inactive)
CC(=O)OCC1OC(N2C(=O)NC(=O)C3C=C4CCCCC4=CC32)CC1OC(C)=O (centres undefined)	> 100 µM (inactive)	> 100 µM (inactive)	> 100 µM (inactive)	> 100	> 100 µM (inactive)	> 100 µM (inactive)	> 100 µM (inactive)	> 100 µM (inactive)	> 100 µM (inactive)	> 100 µM (inactive)	> 100 µM (inactive)		> 100 µM (inactive)	> 100 µM (inactive)	> 100 µM (inactive)	> 100 µM (inactive)	> 100 µM (inactive)	> 100 µM (inactive)	> 100 µM (inactive)	
CCOC(=O)C1(C#N)C2(C#N)C(N)=NC(ON=C(C)C)(ON=C(C)C)C12C#N (centres undefined)	> 100 µM (inactive)	> 100 µM (inactive)	> 100 µM (inactive)	> 100	> 100 µM (inactive)	> 100 µM (inactive)	62.4 µM (inactive)	> 100 µM (inactive)	> 100 µM (inactive)	> 100 µM (inactive)	> 100 µM (inactive)	> 100 µM (inactive)	> 100 µM (inactive)		> 100 µM (inactive)	> 100 µM (inactive)	> 100 µM (inactive)	> 100 µM (inactive)	> 100 µM (inactive)	> 100 µM (inactive)
